± gives the standard deviation of the averaged measurements.
Legend:
Test in all cases: level (log10 ratio to DMSO vehicle control); higher = higher biomarker level / cell amount than vehicle control
Conditions in all cases: in DMSO
Octafluoroadipamide = compound: NC(=O)C(F)(F)C(F)(F)C(F)(F)C(F)(F)C(N)=O [Octafluoroadipamide]
Procedure: (§1)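 BioMAP Diversity Plus panel of 12 human primary cell co-culture systems (3C, 4H, LPS, SAg, BT, BF4T, BE3C, CASM3C, HDF3CGF, KF3CT, MyoF, Mphg). Compounds were added 1 h before stimulation and left for 24 h (MyoF 48 h; BT 72 h for soluble read-outs or 6 d for IgG). Biomarkers were read by ELISA, cytotoxicity by SRB, PBMC viability and proliferation by Alamar Blue. Each well value was divided by the mean of 8 DMSO control wells on the same plate and log10 transformed; duplicate blinded samples were tested at 4 concentrations.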

Heptafluorobutyl iodide = compound: FC(F)(F)C(F)(F)C(F)(F)CI [Heptafluorobutyl iodide]
Procedure: as §1

[1] = compound: FC(F)(F)C(F)(F)C(F)(F)CC1CO1 [1H,1H-Heptafluorobutyl epoxide]
Procedure: as §1

[2] = compound: O=S(=O)(F)C(F)(F)C(F)(F)C(F)(F)C(F)(F)C(F)(F)C(F)(F)C(F)(F)C(F)(F)F [Perfluorooctanesulfonyl fluoride]
Procedure: as §1

[3] = compound: O=C(O)C(F)(F)C(F)(F)C(F)(F)C(F)(F)C(F)(F)C(F)(F)C(F)(F)C(F)(F)C(F)(F)C(F)F [11-H-Perfluoroundecanoic acid]
Procedure: as §1

Test System | level (log10) (Octafluoroadipamide; 6700 nM) | level (log10) (Octafluoroadipamide; 20000 nM) | level (log10) (Octafluoroadipamide; 60000 nM) | level (log10) (Heptafluorobutyl iodide; 6700 nM) | level (log10) (Heptafluorobutyl iodide; 20000 nM) | level (log10) (Heptafluorobutyl iodide; 60000 nM) | level (log10) ([1]; 6700 nM) | level (log10) ([1]; 20000 nM) | level (log10) ([1]; 60000 nM) | level (log10) ([2]; 6700 nM) | level (log10) ([2]; 20000 nM) | level (log10) ([2]; 60000 nM) | level (log10) ([3]; 6700 nM) | level (log10) ([3]; 20000 nM)
BE3C:uPA | -0.0155 ± 0.00071 | -0.0055 ± 0.0078 | 0.0005 ± 0.021 | -0.0015 ± 0.00071 | -0.0105 ± 0.00071 | -0.0025 ± 0.0035 | -0.022 ± 0.014 | -0.004 ± 0.0042 | -0.0065 ± 0.00071 | 0.0045 ± 0.0021 | -0.011 ± 0.0057 | 0.004 ± 0.014 | -0.005 ± 0.02 | -0.211 ± 0.029
LPS:CD141/Thrombomodulin | -0.029 ± 0.1 | 0.014 ± 0.076 | 0.0355 ± 0.056 | 0.0135 ± 0.14 | 0.0175 ± 0.14 | 0.0485 ± 0.1 | 0.059 ± 0.0071 | 0.039 ± 0.079 | 0.019 ± 0.033 | 0.0105 ± 0.025 | 0.0045 ± 0.0078 | 0.0055 ± 0.012 | 0.0875 ± 0.057 | 0.051 ± 0.092
BE3C:tPA | -0.0485 ± 0.00071 | -0.0395 ± 0.037 | -0.011 ± 0.052 | -0.0095 ± 0.029 | -0.024 ± 0.011 | 0.015 ± 0.044 | -0.0115 ± 0.06 | -0.0245 ± 0.03 | -0.0375 ± 0.026 | -0.045 ± 0.075 | -0.027 ± 0.034 | -0.027 ± 0.027 | 0.036 ± 0.058 | -0.338 ± 0.018
4H:CD87/uPAR | -0.036 ± 0.045 | -0.031 ± 0.023 | -0.065 ± 0.0057 | 0.0585 ± 0.04 | 0.0055 ± 0.0035 | -0.024 ± 0.025 | -0.0465 ± 0.06 | -0.055 ± 0.045 | -0.006 ± 0.021 | 0.013 ± 0.028 | 0.008 ± 0.033 | 0.001 ± 0.0042 | -0.0115 ± 0.033 | -0.0295 ± 0.05
HDF3CGF:Collagen I | -0.005 ± 0.0057 | -0.015 ± 0.033 | 0.0045 ± 0.042 | 0.0275 ± 0.03 | 0.021 ± 0.0099 | 0.065 ± 0.047 | -0.0105 ± 0.029 | 0.0175 ± 0.023 | -0.013 ± 0.028 | -0.0055 ± 0.057 | 0.015 ± 0.014 | 0.041 ± 0.027 | -0.093 ± 0.034 | -0.077 ± 0.025
4H:CCL2/MCP-1 | -0.013 ± 0.0014 | -0.023 ± 0.0085 | -0.0005 ± 0.019 | -0.007 ± 0.027 | -0.0215 ± 0.011 | -0.0265 ± 0.021 | -0.033 ± 0.013 | -0.018 ± 0.025 | 0.025 ± 0.042 | 0 | -0.0195 ± 0.0035 | -0.0005 ± 0.023 | -0.0625 ± 0.021 | -0.0615 ± 0.013
BE3C:PAI-I | -0.0145 ± 0.0021 | -0.0295 ± 0.025 | 0 ± 0.059 | -0.018 ± 0.017 | -0.027 ± 0.025 | -0.0085 ± 0.016 | 0.0035 ± 0.0092 | 0.0075 ± 0.005 | 0.0165 ± 0.025 | -0.021 ± 0.0099 | -0.022 ± 0.052 | -0.0135 ± 0.056 | -0.082 ± 0.018 | -0.367 ± 0.047
lMphg:SRB | -0.004 ± 0.0014 | 0 ± 0.0042 | 0.008 ± 0.017 | -0.0035 ± 0.0035 | 0.0065 ± 0.0092 | 0.0045 ± 0.0064 | -0.001 ± 0.0028 | 0.0025 ± 0.0035 | -0.002 ± 0.0085 | 0.005 ± 0.0099 | -0.0085 ± 0.0092 | -0.0015 ± 0.0092 | -0.004 ± 0.0057 | 0.017 ± 0.0099
3C:CCL2/MCP-1 | -0.0065 ± 0.016 | -0.002 ± 0.0014 | 0.03 ± 0.013 | 0.014 ± 0.051 | -0.014 ± 0.041 | 0.007 ± 0.037 | 0.0005 ± 0.0064 | -0.011 ± 0.0071 | -0.0025 ± 0.023 | -0.014 ± 0.0014 | -0.0215 ± 0.011 | 0.001 ± 0.021 | -0.0085 ± 0.0035 | 0 ± 0.017
CASM3C:LDLR | -0.0045 ± 0.0064 | -0.005 ± 0.016 | 0.007 ± 0.0085 | -0.0015 ± 0.00071 | 0.0025 ± 0.005 | 0.0145 ± 0.015 | -0.007 ± 0.0028 | -0.015 ± 0.0057 | 0.002 ± 0.0099 | 0.0035 ± 0.0021 | 0.0015 ± 0.012 | 0.0055 ± 0.023 | -0.0025 ± 0.005 | -0.006 ± 0.0099
4H:CD62P/P-selectin | -0.013 ± 0.0042 | -0.0165 ± 0.032 | -0.0175 ± 0.016 | -0.0515 ± 0.06 | -0.058 ± 0.061 | -0.0135 ± 0.053 | -0.015 ± 0.0099 | -0.007 ± 0.0014 | 0.0455 ± 0.046 | 0.061 ± 0.021 | -0.034 ± 0.079 | -0.0275 ± 0.0064 | 0.0165 ± 0.0092 | 0.035 ± 0.031
lMphg:SRB-Mphg | -0.02 ± 0.027 | -0.0265 ± 0.018 | 0.003 ± 0.018 | -0.0065 ± 0.005 | 0.0055 ± 0.0078 | 0.007 ± 0.031 | 0.012 ± 0.0085 | -0.0005 ± 0.021 | -0.0085 ± 0.005 | 0.0065 ± 0.005 | -0.004 | 0.004 ± 0.0042 | 0.008 ± 0.011 | -0.0095 ± 0.03
CASM3C:M-CSF | -0.0095 ± 0.0078 | -0.01 ± 0.0085 | -0.0065 ± 0.0092 | -0.001 ± 0.0042 | -0.0165 ± 0.0021 | 0.0195 ± 0.037 | -0.0205 ± 0.029 | -0.015 ± 0.0042 | -0.014 ± 0.033 | 0.0005 ± 0.013 | -0.0185 ± 0.028 | 0.0085 ± 0.021 | 0.0055 ± 0.0035 | -0.004 ± 0.0099
MyoF:alpha-SM Actin | 0.022 ± 0.061 | 0.0315 ± 0.056 | 0.0385 ± 0.032 | 0.018 ± 0.0085 | 0.026 ± 0.054 | 0.0225 ± 0.032 | 0.012 ± 0.028 | -0.0095 ± 0.039 | 0.0125 ± 0.08 | -0.0005 ± 0.015 | 0.004 ± 0.018 | 0.0055 ± 0.021 | -0.044 ± 0.033 | -0.11 ± 0.033
MyoF:Collagen III | 0.0035 ± 0.011 | 0.009 ± 0.0057 | -0.0075 ± 0.025 | -0.0095 ± 0.019 | -0.033 ± 0.013 | -0.0205 ± 0.033 | -0.007 ± 0.011 | -0.012 ± 0.011 | -0.012 ± 0.0042 | 0.0095 ± 0.018 | -0.0005 ± 0.03 | 0.009 ± 0.0099 | -0.0405 ± 0.005 | -0.475 ± 0.079
HDF3CGF:SRB | -0.0135 ± 0.047 | -0.0225 ± 0.066 | -0.0195 ± 0.046 | -0.0315 ± 0.012 | 0.0025 ± 0.037 | 0.0275 ± 0.04 | -0.0095 ± 0.029 | -0.0105 ± 0.0021 | 0.0375 ± 0.0064 | 0.017 ± 0.0014 | 0.0365 ± 0.025 | 0.043 ± 0.034 | 0.03 ± 0.0014 | 0.111 ± 0.024
4H:CD106/VCAM-1 | 0.0105 ± 0.028 | 0.015 | 0.0235 ± 0.018 | -0.0215 ± 0.005 | -0.0345 ± 0.026 | 0.0155 ± 0.012 | -0.0035 ± 0.033 | 0.0125 ± 0.073 | 0.007 ± 0.078 | 0.0005 ± 0.015 | -0.0105 ± 0.012 | -0.012 ± 0.011 | -0.0135 ± 0.016 | -0.0015 ± 0.03
3C:CXCL8/IL-8 | 0.0145 ± 0.042 | 0.0035 ± 0.025 | 0.041 ± 0.0042 | -0.026 ± 0.018 | -0.0225 ± 0.019 | -0.0025 ± 0.04 | -0.0225 ± 0.019 | -0.019 ± 0.0057 | 0 ± 0.018 | -0.006 ± 0.0085 | 0.002 | 0.0145 ± 0.019 | 0.012 ± 0.0014 | 0.011 ± 0.0071
CASM3C:CD87/uPAR | -0.023 ± 0.051 | -0.0495 ± 0.077 | -0.057 ± 0.041 | -0.017 ± 0.0042 | 0.0205 ± 0.029 | -0.0015 ± 0.00071 | -0.023 ± 0.0057 | -0.017 ± 0.035 | -0.019 ± 0.017 | 0.0105 ± 0.0035 | 0.0065 ± 0.005 | 0.0225 ± 0.012 | -0.0165 ± 0.011 | -0.025 ± 0.0071

From the supplement of paper PMC10331698
